Measurements: US20100087649A1, “QUINOLINONE DERIVATIVES” (priority 2006, published 2010)

Tests used:
[1] = test system: wild-type HIV-IIIB strain; experiment: Antiviral analysis EGFP: anti-HIV activity in MT4 LTR-EGFP cells; format: cell-based, HIV-1; conditions: fluorescence of HIV-infected cells reduced by 50%, three days after infection
Method: The compounds of the present invention were tested for anti-viral activity in a cellular assay, which was performed according to the following procedure.
The human T-cell line MT4 is engineered with Green Fluorescent Protein (GFP) and an HIV-specific promoter, HIV-1 long terminal repeat (LTR). This cell line is designated MT4 LTR-EGFP, and can be used for the in vitro evaluation of anti-HIV activity of investigational compounds. In HIV-1 infected cells, the Tat protein is produced which upregulates the LTR promotor and finally leads to stimulation of the GFP reporter production, allowing measuring ongoing HIV-infection fluorometrically.
(§1) Effective concentration values such as 50% effective concentration (EC50) can be determined and are usually expressed in μM. An EC50 value is defined as the concentration of test compound that reduces the fluorescence of HIV-infected cells by 50%. The 50% cytotoxic concentration (CC50 in μM) is defined as the concentration of test compound that reduces fluorescence of the mock-infected cells by 50%. The ratio of CC50 to EC50 is defined as the selectivity index (SI) and is an indication of the selectivity of the anti-HIV activity of the inhibitor. The ultimate monitoring of HIV-1 infection and cytotoxicity is done using a scanning microscope. Image analysis allows very sensitive detection of viral infection. Measurements are done before cell necrosis, which usually takes place about five days after infection, in particular measurements are performed three days after infection.
The following Table 5 lists EC50 values, expressed in micromole/liter, against wild-type HIV-IIIB strain, for a selected number of compounds of the invention.

[2] = test system: MT4 CMV-EGFP cells; experiment: Cytotoxicity in mock-infected MT4 CMV-EGFP cells; format: cell-based, human; conditions: fluorescence reduced by 50%
Source text: Analogously, MT4 cells are engineered with GFP and the constitutional cytomegalovirus (CMV) promotor. This cell line is designated MT4 CMV-EGFP, and can be used for the in vitro evaluation of cytotoxicity of investigational compounds. In this cell line, GFP levels are comparably to those of infected MT4 LTR-EGFP cells. Cytotoxic investigational compounds reduce GFP levels of mock-infected MT4 CMV-EGFP cells.
as §1

| Structure (SMILES) | EC50 [1] | CC50 [2] |
| --- | --- | --- |
| CN(C)CCOc1ccc2cc(C#N)c(=O)n(-c3ccc([N+](=O)[O-])cc3)c2c1 [compound 62] | 4.29 µM | > 32 µM |
| CN(C)CCCOc1ccc2cc(C#N)c(=O)n(-c3ccc([N+](=O)[O-])cc3)c2c1 [compound 64] | 0.47 µM | 70.6 µM |
| CCNCCCOc1ccc2cc(C#N)c(=O)n(-c3ccc([N+](=O)[O-])cc3)c2c1 [compound 65] | 0.26 µM | 69 µM |
| CCN(CC)CCCOc1ccc2cc(C#N)c(=O)n(-c3ccc([N+](=O)[O-])cc3)c2c1 [compound 66] | 1.26 µM | > 32 µM |
| N#Cc1cc2ccc(OCCCN3CCCCC3)cc2n(-c2ccc([N+](=O)[O-])cc2)c1=O [compound 67] | 1.17 µM | > 32 µM |
| CCC(CC)NCCCOc1ccc2cc(C#N)c(=O)n(-c3ccc([N+](=O)[O-])cc3)c2c1 [compound 68] | 0.73 µM | 51.6 µM |
| CC(=O)NCCCOc1ccc2cc(C#N)c(=O)n(-c3ccc([N+](=O)[O-])cc3)c2c1 [compound 69] | 10.2 µM | > 100 µM |
| N#Cc1cc2ccc(OCCCNCCO)cc2n(-c2ccc([N+](=O)[O-])cc2)c1=O [compound 72] | 0.93 µM | > 32 µM |
| N#Cc1cc2ccc(OCCCN3CCCC3)cc2n(-c2ccc([N+](=O)[O-])cc2)c1=O [compound 73] | 0.42 µM | 36.4 µM |
| N#Cc1cc2ccc(OCCO)cc2n(-c2ccc([N+](=O)[O-])cc2)c1=O [compound 75] | 3.49 µM | > 32 µM |
| N#Cc1cc2ccc(OCCCO)cc2n(-c2ccc([N+](=O)[O-])cc2)c1=O [compound 76] | 1.03 µM | > 100 µM |
| N#Cc1cc2ccc(-c3cncs3)cc2n(-c2ccc([N+](=O)[O-])cc2)c1=O [compound 77] | 0.34 µM | 25.8 µM |
| N#Cc1cc2ccc(-c3cnccn3)cc2n(-c2ccc([N+](=O)[O-])cc2)c1=O [compound 78] | 1.32 µM | > 100 µM |
| N#Cc1cc2ccc(-c3nccs3)cc2n(-c2ccc([N+](=O)[O-])cc2)c1=O [compound 80] | 0.13 µM | 5.02 µM |
| N#Cc1cc2ccc(-c3cscn3)cc2n(-c2ccc([N+](=O)[O-])cc2)c1=O [compound 81] | 0.15 µM | > 100 µM |
| N#Cc1cc2ccc(-c3ccccn3)cc2n(-c2ccc([N+](=O)[O-])cc2)c1=O [compound 82] | 0.54 µM | > 100 µM |
| N#Cc1cc2cc(OCCCN)ccc2n(-c2ccc([N+](=O)[O-])cc2)c1=O [compound 84] | 3.64 µM | 15.5 µM |
| CN(C)CCCOc1ccc2c(c1)cc(C#N)c(=O)n2-c1ccc([N+](=O)[O-])cc1 [compound 85] | 1.15 µM | > 32 µM |
| N#Cc1cc2cc(OCCN)ccc2n(-c2ccc([N+](=O)[O-])cc2)c1=O [compound 86] | 1.18 µM | > 32 µM |
| N#Cc1cc2cc(OC[C@H]3CCCN3)ccc2n(-c2ccc([N+](=O)[O-])cc2)c1=O [compound 87] | 1.19 µM | > 32 µM |
| N#Cc1cc2cc(OC[C@@H]3CCCN3)ccc2n(-c2ccc([N+](=O)[O-])cc2)c1=O [compound 88] | 1.41 µM | 6.54 µM |
| N#Cc1cc2cc(OCCN3CCCC3)ccc2n(-c2ccc([N+](=O)[O-])cc2)c1=O [compound 89] | 1.57 µM | > 32 µM |
| CN(C)CCOc1ccc2c(c1)cc(C#N)c(=O)n2-c1ccc([N+](=O)[O-])cc1 [compound 90] | 0.89 µM | > 32 µM |
| N#Cc1cc2ccc(O)cc2n(-c2ccc(Cl)nc2)c1=O [compound 91] | > 32 µM | > 32 µM |
| N#Cc1cc2ccc(OCCCN)cc2n(-c2ccc(Cl)nc2)c1=O [compound 92] | 8.55 µM | > 32 µM |

| Structure (SMILES) | EC50 [1] | CC50 [2] |
| --- | --- | --- |
| Cc1ccc2cc(C#N)c(=O)n(-c3ccc([N+](=O)[O-])cc3)c2c1 [compound 95] | > 100 µM | > 100 µM |
| N#Cc1ccc2cc(C#N)c(=O)n(-c3ccc([N+](=O)[O-])cc3)c2c1 [compound 96] | 13.5 µM | > 100 µM |
| N#Cc1cc2cc3c(cc2n(-c2ccc(Cl)nc2)c1=O)OCO3 [compound 97] | > 32 µM | > 32 µM |
| N#Cc1c(N)c2ccc(Cl)cc2n(-c2ccc([N+](=O)[O-])cc2)c1=O [compound 102] | 0.85 µM | > 32 µM |
| N#Cc1c(N)c2ccccc2n(-c2ccc(Cl)nc2)c1=O [compound 104] | 19.5 µM | > 32 µM |
| N#Cc1c(N)c2ccc(Cl)cc2n(-c2ccc(Cl)c(F)c2)c1=O [compound 105] | > 100 µM | > 100 µM |
| N#Cc1c(N)c2cc(Cl)ccc2n(-c2ccc([N+](=O)[O-])cc2)c1=O [compound 107] | > 100 µM | > 100 µM |
| N#Cc1c(N)c2cc(F)c(Cl)cc2n(-c2ccc([N+](=O)[O-])cc2)c1=O [compound 108] | 0.9 µM | > 100 µM |
| COc1cc2c(N)c(C#N)c(=O)n(-c3ccc([N+](=O)[O-])cc3)c2cc1OC [compound 109] | 13.5 µM | > 100 µM |
| N#Cc1c(N)c2ccc(Cl)cc2n(-c2cccc([N+](=O)[O-])c2)c1=O [compound 112] | 5.63 µM | > 100 µM |
| N#Cc1c(N)c2ccc(Cl)cc2n(-c2ccc3nonc3c2)c1=O [compound 113] | 2.73 µM | > 100 µM |
| N#Cc1c(N)c2ccc(C(F)(F)F)cc2n(-c2ccc([N+](=O)[O-])cc2)c1=O [compound 114] | 3.94 µM | > 100 µM |
| Cc1ccc2c(N)c(C#N)c(=O)n(-c3ccc([N+](=O)[O-])cc3)c2c1 [compound 115] | 0.68 µM | > 100 µM |
| COc1ccc2c(N)c(C#N)c(=O)n(-c3ccc([N+](=O)[O-])cc3)c2c1 [compound 116] | 0.78 µM | > 100 µM |
| N#Cc1c(N)c2cc3c(cc2n(-c2ccc(Cl)nc2)c1=O)OCO3 [compound 117] | > 32 µM | > 32 µM |
| N#Cc1c(N)c2ccc(-c3cscn3)cc2n(-c2ccc([N+](=O)[O-])cc2)c1=O [compound 120] | 0.54 µM | > 100 µM |
| Cc1ccc(-n2c(=O)c(C#N)c(N)c3ccc(-c4cc[nH]n4)cc32)cc1C#N [compound 124] | 83.9 µM | > 100 µM |
| Cc1ccc(-n2c(=O)c(C#N)c(N)c3ccc(-c4ccsc4)cc32)cc1C#N [compound 125] | 4.11 µM | > 100 µM |
| Cc1ccc(-n2c(=O)c(C#N)c(N)c3ccc(-c4cccs4)cc32)cc1C#N [compound 126] | 5.7 µM | > 100 µM |
| CNc1c(C#N)c(=O)n(-c2ccc([N+](=O)[O-])cc2)c2ncccc12 [compound 128] | 13.9 µM | > 32 µM |
| N#Cc1c(N)c2cccnc2n(-c2ccc([N+](=O)[O-])cc2)c1=O [compound 129] | 18.3 µM | > 32 µM |
| N#Cc1c(NCc2ccccn2)c2ccccc2n(-c2ccc([N+](=O)[O-])cc2)c1=O [compound 131] | 15.9 µM | > 100 µM |
| N#Cc1c(NCCCN2CCCC2)c2ccccc2n(-c2ccc([N+](=O)[O-])cc2)c1=O [compound 132] | 2.04 µM | 15.3 µM |
| N#Cc1c(NCCN)c2ccccc2n(-c2ccc([N+](=O)[O-])cc2)c1=O [compound 133] | 0.23 µM | 20.1 µM |
